Experimental data reported in ChEMBL document CHEMBL4507290 (2021).

Experiments:
[1] = tested on: Tyrosine-protein kinase ABL1 (Homo sapiens), P00519 [F317I]; settings: Compound concentration 1000.0 nM
[2] = tested on: Tyrosine-protein kinase ABL1 (Homo sapiens), P00519 [Q252H]; settings: Compound concentration 1000.0 nM
[3] = tested on: Tyrosine-protein kinase ABL1 (Homo sapiens), P00519 [Q252H]; settings: Compound concentration 1000.0 nM; remark: listed apart in the source
[4] = molecular target: Tyrosine-protein kinase ABL1 (Homo sapiens) (UniProt P00519); settings: Compound concentration 1000.0 nM
[5] = molecular target: Serine/threonine-protein kinase B-raf (Homo sapiens) (UniProt P15056); settings: Compound concentration 1000.0 nM
[6] = tested on: Serine/threonine-protein kinase B-raf (Homo sapiens), P15056 [V600E]; settings: Compound concentration 1000.0 nM
[7] = molecular target: Serine/threonine-protein kinase BRSK1 (Homo sapiens) (UniProt Q8TDC3); settings: Compound concentration 1000.0 nM
[8] = molecular target: Calcium/calmodulin-dependent protein kinase kinase 2 (Homo sapiens) (UniProt Q96RR4); settings: Compound concentration 1000.0 nM
[9] = molecular target: Cyclin-dependent kinase 2 (Homo sapiens) (UniProt P24941); settings: Compound concentration 1000.0 nM
[10] = molecular target: Casein kinase II subunit alpha (Homo sapiens) (UniProt P68400); settings: Compound concentration 1000.0 nM
[11] = molecular target: Ephrin type-B receptor 1 (Homo sapiens) (UniProt P54762); settings: Compound concentration 1000.0 nM
[12] = tested on: Receptor-type tyrosine-protein kinase FLT3 (Homo sapiens), P36888 [UNDEFINED MUTATION]; settings: Compound concentration 1000.0 nM
[13] = molecular target: Glycogen synthase kinase-3 beta (Homo sapiens) (UniProt P49841); settings: Compound concentration 1000.0 nM
[14] = molecular target: Serine/threonine-protein kinase haspin (Homo sapiens) (UniProt Q8TF76); settings: Compound concentration 1000.0 nM
[15] = molecular target: Tyrosine-protein kinase ITK/TSK (Homo sapiens) (UniProt Q08881); settings: Compound concentration 1000.0 nM
[16] = tested on: Mast/stem cell growth factor receptor Kit (Homo sapiens), P10721 [L576P]; settings: Compound concentration 1000.0 nM
[17] = molecular target: Mitogen-activated protein kinase kinase kinase 3 (Homo sapiens) (UniProt Q99759); settings: Compound concentration 1000.0 nM
[18] = molecular target: MAP/microtubule affinity-regulating kinase 4 (Homo sapiens) (UniProt Q96L34); settings: Compound concentration 1000.0 nM
[19] = molecular target: Tyrosine-protein kinase Mer (Homo sapiens) (UniProt Q12866); settings: Compound concentration 1000.0 nM
[20] = molecular target: Serine/threonine-protein kinase 3 (Homo sapiens) (UniProt Q13188); settings: Compound concentration 1000.0 nM
[21] = molecular target: Serine/threonine-protein kinase PAK 5 (Homo sapiens) (UniProt Q9P286); settings: Compound concentration 1000.0 nM
[22] = molecular target: Phosphatidylinositol 4-phosphate 3-kinase C2 domain-containing subunit beta (Homo sapiens) (UniProt O00750); settings: Compound concentration 1000.0 nM
[23] = tested on: Phosphatidylinositol 4,5-bisphosphate 3-kinase catalytic subunit alpha isoform (Homo sapiens), P42336 [I800L]; settings: Compound concentration 1000.0 nM
[24] = molecular target: Protein kinase C delta type (Homo sapiens) (UniProt Q05655); settings: Compound concentration 1000.0 nM
[25] = molecular target: Rho-associated protein kinase 2 (Homo sapiens) (UniProt O75116); settings: Compound concentration 1000.0 nM
[26] = molecular target: Ribosomal protein S6 kinase alpha-2 (Homo sapiens) (UniProt Q15349); settings: Compound concentration 1000.0 nM
[27] = molecular target: Ribosomal protein S6 kinase alpha-6 (Homo sapiens) (UniProt Q9UK32); settings: Compound concentration 1000.0 nM
[28] = molecular target: SRSF protein kinase 2 (Homo sapiens) (UniProt P78362); settings: Compound concentration 1000.0 nM
[29] = molecular target: Serine/threonine-protein kinase 35 (Homo sapiens) (UniProt Q8TDR2); settings: Compound concentration 1000.0 nM
[30] = molecular target: Serine/threonine-protein kinase TAO1 (Homo sapiens) (UniProt Q7L7X3); settings: Compound concentration 1000.0 nM
[31] = molecular target: Serine/threonine-protein kinase WNK1 (Homo sapiens) (UniProt Q9H4A3); settings: Compound concentration 1000.0 nM
[32] = molecular target: Serine/threonine-protein kinase WNK2 (Homo sapiens) (UniProt Q9Y3S1); settings: Compound concentration 1000.0 nM
[33] = molecular target: D(2) dopamine receptor (Homo sapiens, UniProt P14416); settings: Compound concentration 10.0 uM
[34] = molecular target: Histamine H1 receptor (Homo sapiens) (UniProt P35367); settings: Compound concentration 10.0 uM
[35] = GPCRScan assay: inhibition of GABA/PBR; design: species or system Rattus norvegicus; radioligand conc. used [nm] 0.3 – 2.0, parental cells brain tissue
[36] = molecular target: Sodium-dependent dopamine transporter (Homo sapiens, UniProt Q01959); assay: Functional Assay: Platelet-rich plasma SLC6A3/cAMP; assay type: cell-free
[37] = molecular target: Inhibitor of nuclear factor kappa-B kinase subunit alpha (Homo sapiens) (UniProt O15111); settings: Compound concentration 1000.0 nM
[38] = molecular target: Inhibitor of nuclear factor kappa-B kinase subunit beta (Homo sapiens) (UniProt O14920); settings: Compound concentration 1000.0 nM
[39] = molecular target: MAP kinase-activated protein kinase 2 (Homo sapiens) (UniProt P49137); settings: Compound concentration 1000.0 nM
[40] = tested on: Hepatocyte growth factor receptor (Homo sapiens), P08581 [Y1235D]; settings: Compound concentration 1000.0 nM
[41] = molecular target: 5-hydroxytryptamine receptor 2B (Homo sapiens) (UniProt P41595); settings: Compound concentration 10.0 uM
[42] = molecular target: Histamine H2 receptor (Homo sapiens) (UniProt P25021); settings: Compound concentration 10.0 uM
[43] = molecular target: Alpha-1A adrenergic receptor (Homo sapiens) (UniProt P35348); settings: Compound concentration 10.0 uM
[44] = molecular target: Alpha-1B adrenergic receptor (Homo sapiens) (UniProt P35368); settings: Compound concentration 10.0 uM
[45] = molecular target: Alpha-2C adrenergic receptor (Homo sapiens) (UniProt P18825); settings: Compound concentration 10.0 uM

Chain of Serine/threonine-protein kinase WNK1 (Homo sapiens) (Q9H4A3 whole entry, looked up): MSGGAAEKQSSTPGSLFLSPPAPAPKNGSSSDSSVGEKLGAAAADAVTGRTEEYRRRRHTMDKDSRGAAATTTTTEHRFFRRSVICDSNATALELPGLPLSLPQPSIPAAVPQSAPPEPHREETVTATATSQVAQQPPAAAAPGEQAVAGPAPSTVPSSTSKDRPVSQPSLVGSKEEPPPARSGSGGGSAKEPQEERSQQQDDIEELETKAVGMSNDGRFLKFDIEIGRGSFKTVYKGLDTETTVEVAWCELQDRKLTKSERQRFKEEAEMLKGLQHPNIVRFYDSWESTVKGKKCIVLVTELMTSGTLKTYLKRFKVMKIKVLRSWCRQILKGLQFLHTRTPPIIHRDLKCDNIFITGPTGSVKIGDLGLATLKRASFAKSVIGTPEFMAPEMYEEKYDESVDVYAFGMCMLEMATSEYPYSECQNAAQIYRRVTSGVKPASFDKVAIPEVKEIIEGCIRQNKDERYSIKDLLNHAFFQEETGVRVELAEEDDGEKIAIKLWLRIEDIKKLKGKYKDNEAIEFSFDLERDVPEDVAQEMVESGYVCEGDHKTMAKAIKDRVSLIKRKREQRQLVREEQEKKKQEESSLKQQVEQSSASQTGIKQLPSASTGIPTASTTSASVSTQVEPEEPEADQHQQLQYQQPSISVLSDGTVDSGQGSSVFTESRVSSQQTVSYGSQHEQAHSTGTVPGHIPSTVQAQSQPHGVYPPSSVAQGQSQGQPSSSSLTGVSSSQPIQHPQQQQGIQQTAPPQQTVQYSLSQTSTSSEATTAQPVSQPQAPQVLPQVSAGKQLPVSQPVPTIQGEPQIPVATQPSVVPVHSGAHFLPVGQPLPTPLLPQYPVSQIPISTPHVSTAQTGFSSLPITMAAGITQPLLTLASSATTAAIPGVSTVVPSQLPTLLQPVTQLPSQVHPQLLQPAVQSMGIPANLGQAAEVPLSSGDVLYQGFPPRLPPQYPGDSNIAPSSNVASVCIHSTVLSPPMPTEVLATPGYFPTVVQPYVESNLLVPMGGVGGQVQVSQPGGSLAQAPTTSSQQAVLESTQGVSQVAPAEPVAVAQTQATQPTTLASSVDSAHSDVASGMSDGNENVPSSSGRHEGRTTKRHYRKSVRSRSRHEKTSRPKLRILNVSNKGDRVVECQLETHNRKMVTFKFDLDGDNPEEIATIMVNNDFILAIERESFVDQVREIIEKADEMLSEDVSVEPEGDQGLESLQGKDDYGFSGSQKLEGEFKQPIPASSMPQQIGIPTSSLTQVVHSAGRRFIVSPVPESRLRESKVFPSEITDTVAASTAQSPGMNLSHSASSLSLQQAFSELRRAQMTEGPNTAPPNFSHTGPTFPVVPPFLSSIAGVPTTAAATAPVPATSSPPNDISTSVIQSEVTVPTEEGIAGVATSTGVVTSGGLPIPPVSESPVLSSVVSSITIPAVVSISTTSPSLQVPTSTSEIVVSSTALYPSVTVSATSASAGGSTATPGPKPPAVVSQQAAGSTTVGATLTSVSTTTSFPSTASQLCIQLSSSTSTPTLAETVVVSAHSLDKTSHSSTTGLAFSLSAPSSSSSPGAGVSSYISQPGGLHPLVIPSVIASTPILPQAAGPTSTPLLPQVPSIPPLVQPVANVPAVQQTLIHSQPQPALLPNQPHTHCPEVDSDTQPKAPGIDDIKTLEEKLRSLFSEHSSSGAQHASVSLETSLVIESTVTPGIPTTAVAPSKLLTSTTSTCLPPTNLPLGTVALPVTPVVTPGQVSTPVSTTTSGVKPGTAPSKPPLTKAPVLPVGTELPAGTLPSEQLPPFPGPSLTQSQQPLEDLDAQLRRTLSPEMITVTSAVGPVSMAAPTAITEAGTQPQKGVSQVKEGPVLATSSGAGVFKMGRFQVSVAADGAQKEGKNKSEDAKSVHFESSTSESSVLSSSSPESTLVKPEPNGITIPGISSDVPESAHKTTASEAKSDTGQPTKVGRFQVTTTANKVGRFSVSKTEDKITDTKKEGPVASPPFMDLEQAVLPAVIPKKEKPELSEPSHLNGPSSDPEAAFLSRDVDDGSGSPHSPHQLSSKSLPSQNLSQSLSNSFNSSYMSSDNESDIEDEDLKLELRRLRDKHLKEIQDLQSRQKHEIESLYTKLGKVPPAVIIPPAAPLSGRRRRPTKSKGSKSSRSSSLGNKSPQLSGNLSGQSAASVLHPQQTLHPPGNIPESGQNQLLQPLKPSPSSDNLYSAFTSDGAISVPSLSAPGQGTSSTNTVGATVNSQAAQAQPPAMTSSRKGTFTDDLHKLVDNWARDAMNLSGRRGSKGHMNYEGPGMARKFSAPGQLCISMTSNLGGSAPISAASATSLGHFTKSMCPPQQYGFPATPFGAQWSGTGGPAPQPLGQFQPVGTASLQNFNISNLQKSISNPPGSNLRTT
Chain of Rho-associated protein kinase 2 (Homo sapiens) (O75116 whole entry, looked up): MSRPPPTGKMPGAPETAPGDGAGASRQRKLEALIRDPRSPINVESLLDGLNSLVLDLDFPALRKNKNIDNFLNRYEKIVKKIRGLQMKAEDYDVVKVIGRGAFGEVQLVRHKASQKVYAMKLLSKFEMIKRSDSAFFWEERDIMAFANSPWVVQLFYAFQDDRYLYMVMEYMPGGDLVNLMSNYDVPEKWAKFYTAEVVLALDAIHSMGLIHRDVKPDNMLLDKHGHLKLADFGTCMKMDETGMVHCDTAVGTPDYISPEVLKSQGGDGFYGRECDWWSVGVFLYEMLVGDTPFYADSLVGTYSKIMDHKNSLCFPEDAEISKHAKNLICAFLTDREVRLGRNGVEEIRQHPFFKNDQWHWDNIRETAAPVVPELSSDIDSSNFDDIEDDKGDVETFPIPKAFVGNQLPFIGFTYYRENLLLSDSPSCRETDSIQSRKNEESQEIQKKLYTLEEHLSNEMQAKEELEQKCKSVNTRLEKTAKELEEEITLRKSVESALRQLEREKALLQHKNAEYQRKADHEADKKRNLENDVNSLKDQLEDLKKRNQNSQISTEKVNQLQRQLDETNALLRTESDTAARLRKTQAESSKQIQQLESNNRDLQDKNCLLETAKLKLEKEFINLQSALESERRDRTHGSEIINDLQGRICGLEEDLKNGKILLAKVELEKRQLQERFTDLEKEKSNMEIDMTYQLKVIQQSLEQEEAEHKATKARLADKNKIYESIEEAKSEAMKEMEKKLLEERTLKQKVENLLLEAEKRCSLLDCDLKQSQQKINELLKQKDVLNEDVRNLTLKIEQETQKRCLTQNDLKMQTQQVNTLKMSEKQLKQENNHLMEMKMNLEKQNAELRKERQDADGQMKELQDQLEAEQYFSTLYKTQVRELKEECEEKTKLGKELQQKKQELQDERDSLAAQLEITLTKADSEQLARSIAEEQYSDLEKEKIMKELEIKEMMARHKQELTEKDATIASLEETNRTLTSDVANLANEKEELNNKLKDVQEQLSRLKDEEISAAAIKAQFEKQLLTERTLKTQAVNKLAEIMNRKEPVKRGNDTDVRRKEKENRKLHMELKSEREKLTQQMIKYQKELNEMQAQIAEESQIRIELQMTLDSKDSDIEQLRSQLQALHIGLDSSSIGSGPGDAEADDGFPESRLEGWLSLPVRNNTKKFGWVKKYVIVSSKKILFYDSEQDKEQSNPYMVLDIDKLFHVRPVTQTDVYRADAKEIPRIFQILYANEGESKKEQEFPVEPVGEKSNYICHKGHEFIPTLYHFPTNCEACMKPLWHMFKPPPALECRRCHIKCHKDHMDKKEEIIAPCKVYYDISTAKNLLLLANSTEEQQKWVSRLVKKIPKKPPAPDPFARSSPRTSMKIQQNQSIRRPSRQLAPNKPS
Chain of Serine/threonine-protein kinase haspin (Homo sapiens) (Q8TF76 whole entry): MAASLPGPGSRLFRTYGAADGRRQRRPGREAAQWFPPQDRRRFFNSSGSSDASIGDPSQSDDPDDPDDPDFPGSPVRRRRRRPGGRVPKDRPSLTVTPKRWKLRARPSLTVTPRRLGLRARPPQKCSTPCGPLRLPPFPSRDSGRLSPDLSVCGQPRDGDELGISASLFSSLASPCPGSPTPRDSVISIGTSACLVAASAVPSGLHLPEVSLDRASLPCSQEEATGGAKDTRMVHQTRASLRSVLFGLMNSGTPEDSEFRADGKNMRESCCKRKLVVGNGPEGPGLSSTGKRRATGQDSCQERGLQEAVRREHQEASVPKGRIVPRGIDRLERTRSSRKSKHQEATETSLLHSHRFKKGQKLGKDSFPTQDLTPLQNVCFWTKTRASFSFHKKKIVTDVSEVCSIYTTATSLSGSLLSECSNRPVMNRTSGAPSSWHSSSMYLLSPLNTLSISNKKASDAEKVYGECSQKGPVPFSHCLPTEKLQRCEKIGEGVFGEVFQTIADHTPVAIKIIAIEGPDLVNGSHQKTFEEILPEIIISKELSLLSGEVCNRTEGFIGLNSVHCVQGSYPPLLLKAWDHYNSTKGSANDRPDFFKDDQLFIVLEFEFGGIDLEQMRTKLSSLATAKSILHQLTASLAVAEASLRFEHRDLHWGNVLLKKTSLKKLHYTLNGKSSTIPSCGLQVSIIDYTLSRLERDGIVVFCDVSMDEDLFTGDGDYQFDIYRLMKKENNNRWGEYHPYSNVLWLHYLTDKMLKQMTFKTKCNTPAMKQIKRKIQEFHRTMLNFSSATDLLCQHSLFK
Chain of Serine/threonine-protein kinase 3 (Homo sapiens) (Q13188 whole entry): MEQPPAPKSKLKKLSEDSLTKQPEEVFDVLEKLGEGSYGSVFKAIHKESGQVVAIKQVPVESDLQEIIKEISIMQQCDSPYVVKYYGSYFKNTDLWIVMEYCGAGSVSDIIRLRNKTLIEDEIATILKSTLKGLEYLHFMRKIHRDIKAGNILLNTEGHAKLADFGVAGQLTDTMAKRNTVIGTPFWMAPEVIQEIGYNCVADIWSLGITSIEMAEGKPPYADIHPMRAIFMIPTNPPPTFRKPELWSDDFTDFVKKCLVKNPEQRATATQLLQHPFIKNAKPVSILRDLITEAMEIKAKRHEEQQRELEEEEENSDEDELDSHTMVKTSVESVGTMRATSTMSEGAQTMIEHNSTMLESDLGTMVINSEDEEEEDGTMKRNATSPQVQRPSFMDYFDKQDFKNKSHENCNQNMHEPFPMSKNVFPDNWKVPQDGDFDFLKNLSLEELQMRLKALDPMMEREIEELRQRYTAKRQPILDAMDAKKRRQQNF

Which residual activity [1] does the source give for CN([C@@H]1CCc2c(CC(=O)O)c3cc(S(C)(=O)=O)ccc3n2C1)S(=O)(=O)c1ccc(F)cc1 here?
Its residual activity is 76%.

And the residual activity [2]?
The residual activity was 98%.

What about the residual activity [3] of the same molecule?
Its residual activity is 79%.

And the residual activity [4]?
The residual activity was 74%.

And the residual activity [5]?
The residual activity was 98%.

What about the residual activity [6] of the same molecule?
Its residual activity is 90%.

And the residual activity [7]?
The residual activity was 94%.

What about the residual activity [8] of the same molecule?
The residual activity was 100%.

And the residual activity [9]?
The residual activity was 100%.

What about the residual activity [10] of the same molecule?
The residual activity was 91%.

And the residual activity [11]?
The residual activity was 100%.

And the residual activity [12]?
The residual activity was 91%.

And the residual activity [13]?
Its residual activity is 85%.

And the residual activity [14]?
Its residual activity is 83%.

And the residual activity [15]?
The residual activity was 100%.

What about the residual activity [16] of the same molecule?
Its residual activity is 89%.

And the residual activity [17]?
The residual activity was 85%.

And the residual activity [18]?
The residual activity was 100%.

What about the residual activity [19] of the same molecule?
The residual activity was 100%.

And the residual activity [20]?
The residual activity was 98%.

What about the residual activity [21] of the same molecule?
Its residual activity is 100%.

What about the residual activity [22] of the same molecule?
Its residual activity is 100%.

What about the residual activity [23] of the same molecule?
The residual activity was 72%.

What about the residual activity [24] of the same molecule?
Its residual activity is 100%.

What about the residual activity [25] of the same molecule?
Its residual activity is 100%.

And the residual activity [26]?
Its residual activity is 99%.

What about the residual activity [27] of the same molecule?
The residual activity was 100%.

And the residual activity [28]?
Its residual activity is 100%.

And the residual activity [29]?
The residual activity was 100%.

What about the residual activity [30] of the same molecule?
The residual activity was 95%.

And the residual activity [31]?
Its residual activity is 95%.

And the residual activity [32]?
The residual activity was 80%.

What about the inhibition [33] of the same molecule?
The inhibition was -3.84%.

What about the inhibition [34] of the same molecule?
The inhibition was -9.04%.

What does the source list for CN([C@@H]1CCc2c(CC(=O)O)c3ccccc3n2C1)S(=O)(=O)c1ccc(F)cc1 [MK-7246]?
Ki [35]: 1.11 µM; pKi [35]: 5.95; IC50 [36]: 8.69 µM (not active); residual activity [7]: 100%; residual activity [8]: 100%; residual activity [9]: 100%; residual activity [10]: 82%; residual activity [11]: 100%; residual activity [12]: 95%; residual activity [13]: 93%; residual activity [14]: 100%; residual activity [37]: 100%; residual activity [38]: 98%; residual activity [15]: 96%; residual activity [16]: 100%; residual activity [17]: 100%; residual activity [39]: 100%; residual activity [18]: 100%; residual activity [19]: 100%; residual activity [40]: 100%; residual activity [20]: 100%; residual activity [21]: 100%; residual activity [22]: 94%; residual activity [23]: 79%; residual activity [24]: 100%; residual activity [25]: 100%; residual activity [26]: 84%; residual activity [27]: 100%; residual activity [28]: 100%; residual activity [29]: 100%; residual activity [30]: 93%; residual activity [31]: 96%; residual activity [32]: 92%; inhibition [41]: -4.07%; inhibition [42]: -1.62%; inhibition [43]: -4.89%; inhibition [44]: -8.18%; inhibition [45]: -3.1%
